Laboratory results from patent US20170100383A1, “TOPICAL FORMULATIONS FOR PREVENTING SKIN INFECTION” (Practical Solution, Inc., priority 2015, published 2017).
Where two headings read alike, the source gives them in different places.

Tests used:
Type in all cases: cell-based
Conditions in all cases: 48 h
[1] = test system: Staphylococcus aureus ATCC6538; assay: Broth microdilution inhibitory rate (MIC assay) against Staphylococcus aureus
Description: (§1) Staphyloccocus aureus strain ATCC 6538, Bacillus subtilis ATCC9372 or Candida albicans ATCC10231 each (0.1 ml of a bacterial suspension having 10^8 cfu/ml bacteria) were inoculated into the mixture. […] Test tubes containing the mixtures were placed in a 37° C. incubator and incubated for 48 hours. The concentration of bacterial cells in each test tube was measured. The inhibitory rates were calculated as below:
(§2) [(Positive control average colony count−Test average colony count)/Positive control average colony count]×100%
(§3) Positive controls are the tubes having broth and microorganisms but no antimicrobial agents.

[2] = test system: Bacillus subtilis ATCC9372
Description: as §1, §2, §3

[3] = test system: Candida albicans ATCC10231; assay: Broth microdilution inhibitory rate (MIC assay) against Candida albicans
Description: as §1, §2, §3

[4] = dilution 1* of initial concentration (CHG 5 g/L, CPC 0.5 g/L), 37° C.
[5] = dilution 1/10 of initial concentration (CHG 5 g/L, CPC 0.5 g/L)
[6] = dilution 1/100 of initial concentration (CHG 5 g/L, CPC 0.5 g/L)
[7] = dilution 1/1000 of initial concentration (CHG 5 g/L, CPC 0.5 g/L)
[8] = dilution 1/2000 of initial concentration (CHG 5 g/L, CPC 0.5 g/L)
[9] = dilution 1/4000 of initial concentration (CHG 5 g/L, CPC 0.5 g/L)
[10] = dilution 1/8000 of initial concentration (CHG 5 g/L, CPC 0.5 g/L)

N=C(NCCCCCCNC(=N)NC(=N)Nc1ccc(Cl)cc1)NC(=N)Nc1ccc(Cl)cc1.O=C(O)[C@H](O)[C@@H](O)[C@H](O)[C@H](O)CO.O=C(O)[C@H](O)[C@@H](O)[C@H](O)[C@H](O)CO [CHG, chlorhexidine digluconate]
Anti-microbial activity (inhibitory rate) [1, 4]: 100% | Anti-microbial activity (inhibitory rate) [1, 5]: 100% | Anti-microbial activity (inhibitory rate) [1, 6]: 100% | Anti-microbial activity (inhibitory rate) [1, 7]: 100% | Anti-microbial activity (inhibitory rate) [1, 8]: 100% | Anti-microbial activity (inhibitory rate) [1, 9]: 100% | Anti-microbial activity (inhibitory rate) [1, 10]: 78.43% | Anti-microbial activity (inhibitory rate) [2, 4]: 100% | Anti-microbial activity (inhibitory rate) [2, 5]: 100% | Anti-microbial activity (inhibitory rate) [2, 6]: 100% | Anti-microbial activity (inhibitory rate) [2, 7]: 100% | Anti-microbial activity (inhibitory rate) [2, 8]: 100% | Anti-microbial activity (inhibitory rate) [2, 9]: 100% | Anti-microbial activity (inhibitory rate) [2, 10]: 99.99% | Anti-microbial activity (inhibitory rate) ([2]; dilution 1/16000 of initial concentration (CHG 5 g/L, CPC 0.5 g/L)): 99.50% | Anti-microbial activity (inhibitory rate) ([2]; dilution 1/32000 of initial concentration (CHG 5 g/L, CPC 0.5 g/L)): 90.83% | Anti-microbial activity (inhibitory rate) [3, 4]: 100% | Anti-microbial activity (inhibitory rate) [3, 5]: 100% | Anti-microbial activity (inhibitory rate) [3, 6]: 100% | Anti-microbial activity (inhibitory rate) [3, 7]: 97.76% | Anti-microbial activity (inhibitory rate) [3, 8]: 93.92% | Anti-microbial activity (inhibitory rate) [3, 9]: 90.41%
